Assay results taken from PMC6718149, “Structure of GTP cyclohydrolase I from Listeria monocytogenes, a potential anti-infective drug target” (Acta Crystallographica. Section F, Structural Biology …, 2019).

How the values were obtained:
[1] = biological target: T1, human GTP cyclohydrolase I (Homo sapiens, UniProt P30793); experiment: Photometric counterscreen against human GTP cyclohydrolase I (330 nm); format: biochemical; conditions: human GTP cyclohydrolase I (blue curve); 200 µM GTP, pH 7.5; calculated with DynaFit
T1 construct: made in house
T1 sequence (P30793 43-250 limits assumed): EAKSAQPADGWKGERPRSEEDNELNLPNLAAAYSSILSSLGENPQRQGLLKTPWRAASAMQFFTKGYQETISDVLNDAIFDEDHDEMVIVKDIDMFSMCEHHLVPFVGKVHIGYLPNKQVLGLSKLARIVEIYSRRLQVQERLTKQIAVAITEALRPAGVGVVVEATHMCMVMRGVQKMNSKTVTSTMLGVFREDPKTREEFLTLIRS
Procedure: (§1) In order to explore the druggability of the protein, we screened a small library of about 9000 highly diverse compounds (Bracher et al., 1998[▸]). Assays were run in 384-well plates and were monitored photometrically at 330 nm. Hits were rescreened against GTP cyclohydrolase I from L. monocytogenes and human GTP cyclohydrolase I, and IC50 values were determined using the photometric assay. […] Although stronger inhibitors have been reported down to a K i of 5.4 nM (Tanaka et al., 2005[▸]), all of the inhibitors reported so far are substrate or product analogs.
(§2) Assay mixtures contained 50 mM Tris hydrochloride, pH 7.5, 100 mM KCl, 200 µM GTP, and protein. They were monitored photometrically at 330 nm.
(§3) S2. High throughput screen
(§4) A substance library of 9,000 test compounds (courtesy of BASF Crop protection division, Ludwigshafen, Germany) was tested against GTP cyclohydrolase I protein from L. monocytogenes in 384 well clear bottom plates (Corning, polystyrol, flat-bottom, non-treated surface). 32 wells of each plate were used as “signal”, i.e. as positive control with enzyme and substrate, but without test compound. 32 wells of each plate were used as “control”, i.e. as negative control with substrate but without enzyme or test compound. Each of the remaining 320 wells contained app. 50 µM test compound (depending on the molecular weight of a given test substance) in 3 µL DMSO. The compounds were pipetted with a Hamilton Starlet robot (Hamilton Germany GmbH, Planegg, Germany) with a 96-tip pipetting block. Enzyme (final concentration 8.7 µM) and substrate (final concentration 200 µM) were supplied in separate solutions that both contained 50 mM Tris hydrochloride, pH 7.5 and 100 mM KCl. 30 µL per well of both solutions were filled in to the assay plates with an 8-fold dispenser (Bio Tek Germany, Bad Friedrichshall, Germany) and the plates were then centrifuged for 1 min at 1,000 rpm and room temperature. The reaction was monitored with a SpectraMax M5 plate reader photometer (Molecular Devices GmbH, Biberach a. d. Riss, Germany) at 330 nm and room temperature for 30 min. […]

[2] = biological target: T2, GTP cyclohydrolase I from L. monocytogenes (Listeria monocytogenes serovar 1/2a, UniProt Q8Y5X1); experiment: Photometric GTP cyclohydrolase I inhibition assay (330 nm), IC50 determination of screening hits; format: biochemical; conditions: GTP cyclohydrolase I from L. monocytogenes (red curve); 200 µM GTP, pH 7.5; calculated with DynaFit
T2 construct: made in house; host or cells: Escherichia coli XL1-Blue, plasmid pNCO-His6-EK-LmGTP-CHI
Procedure: as §1, §2, §3, §4

[3] = biological target: the molecule itself; experiment: crystal structure; sitting-drop vapor diffusion, 1.33 M sodium citrate, 0.1 M HEPES pH 7.3; 2.4 Å; one decamer in the asymmetric unit

## Cc1ccc(OC(=S)Nc2ccc(NC(=S)Oc3ccc(C)cc3)cc2)cc1 [(c)]
[1]
  IC50: 327 ± 66 µM
[2]
  IC50: 36 ± 3 µM

## O=C1CS/C(=N/N=C/c2ccc(-c3ccc(Cl)cc3)o2)N1 [(b)]
[1]
  IC50: 238 ± 40 µM
[2]
  IC50: 27 ± 6 µM

## C=CCNc1nc(N)c(C(=O)c2ccc3c(c2)OCO3)s1 [(a)]
[1]
  IC50: > 500 µM
[2]
  IC50: 13 ± 1 µM

B1: GTP cyclohydrolase I from Listeria monocytogenes (enzyme, L. monocytogenes)
chain: EQIDKQKIADAVKVILEAVGENPDREGLIDTPMRVARMYEEVFAGLKKDPSVHFDTIFEEQHEELVLVKDIRFSSMCEHHLVPFFGVAHVAYLPQNGRVAGLSKLARVVDDVSRRPQLQERITTTVAEIMMEKLKPLGVMVIMEAEHMCMTIRGVNKPGTKTITSAVRGAFKNDDKLRSEVLALIKHN
modifications: Cys78 and Cys150 oxidized to the disulfide level (in the crystal; zinc lost)
notes: GTP cyclohydrolase I (folE), L. monocytogenes ATCC BAA-679; the natural stretch begins at Glu (first cloned triplet GAG) and runs to the stop codon; the printed Cys78 and Cys150 fit numbering with this Glu as residue 2; D5-symmetric homodecamer; also called LmGTPCHI; His6-EK-LmGTP-CHI; source: E. coli XL1-Blue (plasmid pNCO-His6-EK-LmGTP-CHI), purified (nickel-NTA agarose, Superdex 200); not …
[3]
  stoichiometry N: 10
